Converted amounts (≈) assume the structure as drawn. Where two headings read alike, the source gives them in different places.
Experiments:
[1] = system: MRSA; assay: MIC, agar dilution, multipoint inoculator; format: cell-based, methicillin-resistant Staphylococcus aureus; conditions: Staphylococcus aureus
In short: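 Agar dilution MIC on Mueller Hinton agar, multipoint inoculator delivering 10^4 colony forming units per spot. MRSA values are ranges across ten clinical MRSA strains; S. aureus NCTC 6571 as reference strain.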

[2] = system: S. aureus; assay: MIC, agar dilution, multipoint inoculator; format: cell-based, Staphylococcus aureus; conditions: Staphylococcus aureus, upper value of MIC reading, read-out: MIC
In short: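 Each strain was spot-inoculated (10^4 CFU) onto Mueller Hinton agar plates carrying compound dilutions, using a multipoint device, and the MIC was recorded.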

- MIC ([1]; 18 h, MRSA Isolate 1, upper value of MIC reading, read-out: MIC): 4 µg/mL (≈ 11.3 µM)
- MIC ([1]; 18 h, MRSA Isolate 2, upper value of MIC reading, read-out: MIC): 4 µg/mL (≈ 11.3 µM)
- MIC ([1]; 18 h, MRSA Isolate 3, upper value of MIC reading, read-out: MIC): 4 µg/mL (≈ 11.3 µM)
- MIC ([1]; 18 h, MRSA Isolate 4, upper value of MIC reading, read-out: MIC): 4 µg/mL (≈ 11.3 µM)
- MIC ([1]; 18 h, MRSA Isolate 5, upper value of MIC reading, read-out: MIC): 4 µg/mL (≈ 11.3 µM)
- MIC ([1]; 18 h, MRSA Isolate 6, upper value of MIC reading, read-out: MIC): 4 µg/mL (≈ 11.3 µM)
- MIC ([1]; 18 h, MRSA Isolate 7, upper value of MIC reading, read-out: MIC): 4 µg/mL (≈ 11.3 µM)
- MIC ([1]; 18 h, MRSA Isolate 8, upper value of MIC reading, read-out: MIC): 4 µg/mL (≈ 11.3 µM)
- MIC ([1]; 18 h, MRSA Isolate 9, upper value of MIC reading, read-out: MIC): 4 µg/mL (≈ 11.3 µM)
- MIC ([1]; 18 h, MRSA Isolate 10, upper value of MIC reading, read-out: MIC): 4 µg/mL (≈ 11.3 µM)
- MIC ([1]; MRSA, 18 h, panel of ten MRSA strains (clinical isolates), read-out: MRSA MIC range): 2 to 4 µg/mL (≈ 5.67 to 11.3 µM)
- MIC ([1]; MRSA, the MRSA strains which were tested, read-out: MIC): 2 to 4 µg/mL (≈ 5.67 to 11.3 µM)
- MIC ([2]; 18 h, S. aureus Cowan 1): 4 µg/mL (≈ 11.3 µM)
- MIC ([2]; NCTC6571, 18 h, S. aureus NCTC 6571): 4 µg/mL (≈ 11.3 µM)
- MIC ([2]; NCTC10788, 18 h, S. aureus NCTC 10788): 4 µg/mL (≈ 11.3 µM)
Structure (SMILES): CC(C)(C)c1cc(/C=N/N=C(\N)c2ccncc2)c(O)c(C(C)(C)C)c1 [Compound 4PYcq]

From patent US20080096894A1, “Anti-Bacterial Compounds” (ASTON UNIVERSITY, priority 2005, published 2008)
